These results are taken from patent publication US20070196288A1, “Method of treating periodontitis and of reducing dentinal sensitivity” (Research Foundation of the State University of New York, priority 2006, published 2007).

Data set [1] is described as follows: Dissolution of gadolinium materials. Type of data set: physicochemical.
Data set [2] has as its system cell culture media-precipitated proteases from P. Gingivalis. Kind of data set: BAPNA hydrolysis by culture media-precipitated proteins. Type of data set: biochemical, P. Gingivalis 381. Particulars: FIG. 1; inhibitor 2-10 mM tested, 10 mM stated for gadolinium nitrate; 5% 2-mercaptoethanol, 37° C., 1 hour. How it is done:
(§1) All steps in the isolation of P. Gingivalis proteins were carried out at 4° C. […] The cells and culture media were separated by centrifugation at 10,000×g for 10 minutes in a Sorvall centrifuge.
To the cell-separated culture supernatant, ammonium sulfate was added to achieve 80% saturation in a volume of 400 ml. After 4 hours, the precipitate was collected by centrifugation at 11,000×g for 45 minutes. It was then dissolved in HEPES and dialyzed against 4 liters of HEPES buffer. The precipitate formed on dialysis was removed by centrifugation at 10,000×g for 30 minutes, the supernatant was collected, and the precipitated material was discarded. Extracted proteins was analyzed for protein content using a Spectrophotometer ND-1000.
(§2) Activity of cell surface-extracted and culture-precipitated proteases was assayed by using the synthetic chromogenic substrate benzoyl-L-Arg-p-nitroanilide (BAPNA). [Erlanger, B. F., Kokowsky, N. & Cohen, W., “The Preparation and Properties of Two New Chromogenic Substrates of Trypsin”, 95 Arch. […] Colorimetric values measured as absorbance were obtained using Spectronic 2000 Methodology for culture media-precipitated proteins.
The reaction mixture consisted of 50 μl of 100 mM substrate in 50 mM HEPES buffer, pH 7, and 25 μl of the sample protease containing 2 mg/ml of protein was used to test chromogenic activity of the substrate. With 5% of 2-mercaptoethanol as reducing agent, volume was made to 250 μl. Various concentrations of the inhibitor 2 mM; 4 mM; 6 mM; 8 mM; 10 mM were used.
(§3) After incubation at 37° C. for 1 hour, 100 μl of 5 N acetic acid was added to stop the reaction in both experimental samples. The total volume was made to 1 ml by addition of water. The p-nitroaniline released was determined by measuring A405.

The subject of data set [3] is cell surface-extracted proteases from P. Gingivalis. The data set can be described thus: BAPNA hydrolysis by cell surface-extracted proteins. Type of data set: biochemical, P. Gingivalis 381. Particulars: for inhibitory effect on cell surface-extracts (BAPNA hydrolysis): FIG. 2, inhibitor 0.4-2.4 mM tested, 2.4 mM stated for gadolinium nitrate, 5% 2-mercaptoethanol, 37° C., 1 hour; for OD at A405 (p-nitroaniline released): inhibitor concentration 2.4 mM. How it is done:
as §1
P. Gingivalis cells collected after centrifugation were washed three times with 50 millimolar (“mM”) HEPES buffer, pH 7.0. The washed cells were stirred with 1% Triton X-100 (Fisher Scientific) dissolved in HEPES (Fisher Scientific) at 4° C. for 15 minutes to solubilize cell surface proteins. The cells were centrifuged at 10,000×g in a Sorvall centrifuge for 10 minutes, and the supernatant was collected. [Sojar, H. T., Lee, J. Y., Bedi, G. S. et al., “Purification and Characterization of a Protease from Porphyromonas Gingivalis Capable of Degrading Salt-Solubilized Collagen”, 61 Infect. Immun. […] The amount of protein was estimated using a Spectrophotometer ND-1000 by absorbance at 280 nm.
as §2
The reaction mixture consisted of 100 μl of 100 mM substrate in 50 mM HEPES buffer, pH 7, 50 μl of an approximately 1 mg/ml of proteins was used to test chromogenic activity of the substrate. With 5% of 2-mercaptoethanol as reducing agent, the volume was made to 500 μl. Various volumes of the inhibitor 0.4 mM; 0.8 mM; 1.2 mM; 1.6 mM; 2.0 mM; 2.4 mM were used.
as §3

Data set [4] has as its system P. Gingivalis proteins extracted from cell surface and precipitated from cell culture media (gelatin-cleaving / collagenolytic activity). The data set can be described thus: Gelatin zymography. Type of data set: biochemical, P. Gingivalis 381. Particulars: inhibitor 5 mM in development buffer, 37° C. overnight; both protein preparations (FIGS. 3 and 4). From the text: Since P. Gingivalis proteases cleave gelatin effectively, the gelatin-cleaving activity of the extracted proteins was checked by zymography, as described by Heussen and Dowdle using 10% Zymogen (Gelatin) Gel 1.0 mm×10 well (Invitrogen Corporation). [Heussen, C. & Dowdle, E. B., “Electrophoretic Analysis of Plasminogen Activators in Polyacrylamide Gels Containing Sodium Dodecyl Sulfate and Copolymerized Substrates”, 102 Anal. Biochem. 196-202 (1980).]
The extracted proteins, with the reducing sample buffer containing 5% mercaptoethanol, was electrophoresed. After electrophoresis, the gel was washed in 50 mM HEPES, pH 7.0, containing 2% Triton X-100 for 30 minutes, and rinsed twice with the same buffer without Triton X-100. The gel was then cut into 3 parts before transferring to a development buffer containing 50 mM HEPES, 5% 2-mercaptoethanol, buffered at pH 7.0. One part was incubated with developing buffer whereas the other two parts were incubated in the presence of inhibitor with varying concentrations of 5 mM and 10 mM. The gel was incubated at 37° C. overnight on a rocker. The incubated gel was then fixed with 50% methanol and 12% acetic acid for 30 minutes, and stained with 0.1% Coomassie blue in 50% methanol and 12% acetic acid to visualize lytic bands.

Data set [5] in a line: pH of the applied solution. Particulars: pH of the solution or product as applied to dentine. Type of data set: physicochemical.

`O=C([O-])C(=O)[O-].O=C([O-])C(=O)[O-].O=C([O-])C(=O)[O-].[Gd+3].[Gd+3]` [Gadolinium oxalate]: in data set [1], the “conditions required for dissolution” value is “required very acidic conditions for dissolution”.

As for `O.O.O.O.O.O.O.[Ce+3].[Cl-].[Cl-].[Cl-]` [cerium chloride, cerium chloride heptahydrate (CeCl3.7H2O)], in data set [2], the “inhibition of protease activity (BAPNA hydrolysis), cell culture-precipitated proteins” value (“inhibition of protease activity” for short) is listed as approximately 11%. In addition, in data set [3], the “inhibitory effect on cell surface-extracts (BAPNA hydrolysis)” value (from here on “inhibitory effect”) is approximately 32% and the “OD at A405 (p-nitroaniline released)” value is given as approximately 0.66.

`O.O.O.O.O.O.[Cl-].[Cl-].[Cl-].[Gd+3]` [gadolinium chloride, gadolinium chloride hexahydrate (GdCl3.6H2O)]: the “inhibition of protease activity” value in data set [2] is listed as approximately 70%. For the same compound, in data set [3], the “inhibitory effect” value is approximately 54% and the “OD at A405 (p-nitroaniline released)” value was approximately 0.45.

Regarding `O.O.O.O.O.O.O=[N+]([O-])[O-].O=[N+]([O-])[O-].O=[N+]([O-])[O-].[Gd+3]` [gadolinium nitrate, gadolinium nitrate hexahydrate, (Gd(NO3)3.6H2O)], the “effect on gelatin-cleaving / collagenolytic activity on zymogram” value in data set [4] is given as “inhibited the collagenolytic activity”. In data set [3], the “inhibitory effect” value is approximately 56% and the “OD at A405 (p-nitroaniline released)” value is listed as approximately 0.43. In data set [5], this compound registered a pH of 4.3. In data set [5] (listed as Gadolinium nitrate), the pH result was “about 4.3”.

For `[Gd]` [gadolinium], the “effect on gelatin-cleaving / collagenolytic activity on zymogram” value in data set [4] is “negative staining bands were absent”.

Turning to `O.O.O.O.O.O.[Cl][Sm]([Cl])[Cl]` [samarium chloride, samarium chloride hexahydrate, (SmCl3.6H2O)], the “inhibition of protease activity” value in data set [2] is approximately 75%. In addition, in data set [3], the “inhibitory effect” value is reported as approximately 59% and the “OD at A405 (p-nitroaniline released)” value was approximately 0.39.
